22 molecules from US8017612B2, “Piperazine compound and use thereof as a HCV polymerase inhibitor” (priority 2006, dated 2011) can be followed below.

Structures can show the parent of a compound that is named as a salt. Where only a bound is given, the exact number is not on record here.

The target of experiment [1] is T1, HCV polymerase (NS5B) type 1b (Hepatitis C virus genotype 1b, UniProt P26663).
T1 construct: a region encoding NS5B (J Virol 1991 March, 65(3), 1105-13, 544 amino acids after deletion of 47 amino acids on the C-terminal); 6xHis (C); made in house; host or cells: Escherichia coli
In words: Assay of enzyme (HCV polymerase) inhibitory activity, type 1b enzyme. It is filed as biochemical, HCV BK strain (type 1b). In a few lines: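 Rxn: NS5B 1b (BK, ΔC47, His6) 0.5 μg/ml; substrate RNA 5 μg/ml; ATP/GTP/CTP 50 μM, UTP 2 μM + [5,6-3H]UTP; 20 mM Tris pH 7.5, 5 mM MgCl2, 50 mM NaCl, 1 mM EDTA/DTT. 25 °C, 60 min. Stop with TCA/pyrophosphate, filter, scintillation count; IC50 vs. untreated.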

The target of experiment [2] is T2, HCV polymerase (NS5B) type 1a (Hepatitis C virus genotype 1a, UniProt P26664).
T2 construct: made in house; host or cells: Escherichia coli (by the 'similar method' of the 1b enzyme)
The experiment is described as follows: Assay of enzyme (HCV polymerase) inhibitory activity, type 1a enzyme. The class given is biochemical, HCV type 1a (cloned from the blood of patients). In a few lines:
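NS5B Δ47 C-term His6 (type 1a, 1.5 μg/ml); substrate RNA 5 μg/ml; ATP/GTP/CTP 50 μM, UTP 2 μM + [5,6-3H]UTP; Tris pH 7.5, MgCl2 5 mM; 25° C, 60 min. TCA/pyrophosphate stop, GF/B filter, scintillation. IC50 vs no-compound control.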

The mark [3] stands for this setting: HCV polymerase inhibitory activity (IC50), 1b, type 1b enzyme 0.5 μg/ml, 25° C., 60 min.
The mark [4] stands for this setting: HCV polymerase inhibitory activity (IC50), 1a, type 1a enzyme 1.5 μg/ml, 25° C., 60 min.
The mark [5] stands for this setting: HCV polymerase inhibitory activity IC50, 1b, type 1b enzyme.
Where [6] appears, read: HCV polymerase inhibitory activity IC50, 1a, type 1a enzyme.

For the molecule `CC(=O)N1CCN(S(=O)(=O)c2ccc(C(C)C)cc2)C(C(=O)NCc2ccc(S(N)(=O)=O)cc2)C1` (centres unmarked) [Example 38, 4-acetyl-1-(4-isopropyl-benzenesulfonyl)-piperazine-2-carboxylic acid 4-sulfamoyl-benzylamide], the IC50 in experiment [1] (setting [3]) and in experiment [2] (setting [4]) was above 1000 nM throughout.
On to `CCCc1ccc(CNC(=O)[C@H]2CN(c3nc4c(s3)CN(C(=O)OCc3ccccc3)CC4)CCN2S(=O)(=O)c2ccc(OC(F)(F)F)cc2)cc1` [Example 534, 2-[(R)-3-(4-propyl-benzylcarbamoyl)-4-(4-trifluoromethoxy-benzenesulfonyl)-piperazin-1-yl]-6,7-dihydro-4H-thiazolo[5,4-c]pyridine-5-carboxylic acid benzyl ester], for which the IC50 in experiment [1] (setting [3]) and in experiment [2] (setting [4]) was below 100 nM each time.
As for `O=C1CCC(N2CCN(S(=O)(=O)c3ccc(OC(F)(F)F)cc3)[C@@H](C(=O)NCc3ccc(OC(F)(F)F)cc3)C2)CN1` (stereo partly drawn) [Example 923, (R)-4-(6-oxo-piperidin-3-yl)-1-(4-trifluoromethoxy-benzenesulfonyl)-piperazine-2-carboxylic acid 4-trifluoromethoxy-benzylamide], the 50% inhibitory concentration (IC50) in experiment [1] (setting [5]) and in experiment [2] (setting [6]) was 100 to 1000 nM in each case.
Turning to `CC(=O)N1CCN(S(=O)(=O)c2ccc(C(C)C)cc2)C(C(=O)NCc2ccc(-c3ccccc3)cc2)C1` (centres unmarked) [Example 36, 4-acetyl-1-(4-isopropyl-benzenesulfonyl)-piperazine-2-carboxylic acid (biphenyl-4-ylmethyl)-amide], the IC50 was above 1000 nM in experiment [1] (setting [3]) and 100 to 1000 nM in experiment [2] (setting [4]).
With `CC(=O)N1CCN(S(=O)(=O)c2cc(Cl)cc(Cl)c2)C(C(=O)NCc2ccc(C(F)(F)F)cc2)C1` (centres unmarked) [Example 351, 4-acetyl-1-(3,5-dichloro-benzenesulfonyl)-piperazine-2-carboxylic acid 4-trifluoromethyl-benzylamide], the half-inhibitory concentration (IC50) in experiment [1] (setting [3]) and in experiment [2] (setting [4]) was above 1000 nM each time.
In the case of `O=C(NCc1ccc(OC(F)F)cc1)[C@H]1CN(c2nc3ncncc3s2)CCN1S(=O)(=O)c1ccc(OC(F)(F)F)cc1` [Example 932, (R)-4-thiazolo[4,5-d]pyrimidin-2-yl-1-(4-trifluoromethoxy-benzenesulfonyl)-piperazine-2-carboxylic acid 4-difluoromethoxy-benzylamide], the IC50 in experiment [1] (setting [5]) and in experiment [2] (setting [6]) was below 100 nM throughout.
With `CCCc1ccc(CNC(=O)[C@H]2CN(c3nc(C)c(S(=O)(=O)NC(C)=O)s3)CCN2S(=O)(=O)c2ccc(OC(F)(F)F)cc2)cc1` [Example 832, (R)-4-(5-acetylsulfamoyl-4-methyl-thiazol-2-yl)-1-(4-trifluoromethoxy-benzenesulfonyl)-piperazine-2-carboxylic acid 4-propyl-benzylamide], the IC50 in experiment [1] (setting [5]) and in experiment [2] (setting [6]) was below 100 nM throughout.
With `CCC(F)(F)c1ccc(CNC(=O)[C@H]2CN(c3cnc(-c4nnn[nH]4)cn3)CCN2S(=O)(=O)c2ccc(OC(F)(F)F)cc2)cc1` [Example 592, (R)-5′-(1H-tetrazol-5-yl)-4-(4-trifluoromethoxy-benzenesulfonyl)-3,4,5,6-tetrahydro-2H-[1,2′]bipyrazinyl-3-carboxylic acid 4-(1,1-difluoro-propyl)-benzylamide], the concentration for half-maximal inhibition (IC50) in experiment [1] (setting [3]) and in experiment [2] (setting [4]) was below 100 nM each time.
`O=C(NCc1ccc(OC(F)F)cc1)[C@H]1CN(c2nc3nc(C(F)(F)F)ncc3s2)CCN1S(=O)(=O)c1ccc(C(F)(F)F)cc1` [Example 1001, (R)-1-(4-trifluoromethyl-benzenesulfonyl)-4-(5-trifluoromethyl-thiazolo[4,5-d]pyrimidin-2-yl)-piperazine-2-carboxylic acid 4-difluoromethoxy-benzylamide]: the IC50 in experiment [1] (setting [5]) and in experiment [2] (setting [6]) was below 100 nM each time.
On to `CC(=O)N1CCN(S(=O)(=O)c2ccc(C(C)C)cc2)[C@@H](C(=O)NCCCN2CCCC2)C1` [Example 405, (R)-4-acetyl-1-(4-isopropyl-benzenesulfonyl)-piperazine-2-carboxylic acid (3-pyrrolidin-1-yl-propyl)-amide], for which the IC50 in experiment [1] (setting [3]) and in experiment [2] (setting [4]) was above 1000 nM each time.
For the molecule `CN(C)c1ccc(CNC(=O)C2CNCCN2S(=O)(=O)c2ccc(I)cc2)cc1` (centres unmarked) [Example 84, 1-(4-iodo-benzenesulfonyl)-piperazine-2-carboxylic acid 4-dimethylamino-benzylamide hydrochloride], the 50% inhibitory concentration (IC50) in experiment [1] (setting [3]) and in experiment [2] (setting [4]) was above 1000 nM each time.
In the case of `CCNC(=O)N1CCN(S(=O)(=O)c2ccc(C(F)(F)F)cc2)[C@@H](C(=O)NCc2ccc(C(C)C)cc2)C1` [Example 177, (R)-4-(4-trifluoromethyl-benzenesulfonyl)-piperazine-1,3-dicarboxylic acid 1-ethylamide 3-(4-isopropyl-benzylamide)], the concentration for half-maximal inhibition (IC50) in experiment [1] (setting [3]) and in experiment [2] (setting [4]) was 100 to 1000 nM in each case.
Turning to `CC(=O)N1CCN(S(=O)(=O)c2ccc(C(C)C)cc2)[C@@H](C(=O)NCCCN2CCOCC2)C1` [Example 404, (R)-4-acetyl-1-(4-isopropyl-benzenesulfonyl)-piperazine-2-carboxylic acid (3-morpholin-4-yl-propyl)-amide], the IC50 in experiment [1] (setting [3]) and in experiment [2] (setting [4]) was above 1000 nM in each case.
As to `CCC(F)(F)c1ccc(CNC(=O)[C@H]2CN(C(=O)Nc3nnc(C(C)(C)O)s3)CCN2S(=O)(=O)c2ccc(OC(F)(F)F)cc2)cc1` [Example 484, (R)-4-(4-trifluoromethoxy-benzenesulfonyl)-piperazine-1,3-dicarboxylic acid 3-[4-(1,1-difluoro-propyl)-benzylamide] 1-{[5-(1-hydroxy-1-methyl-ethyl)-[1,3,4]thiadiazol-2-yl]-amide}], the results for the half-inhibitory concentration (IC50) in experiment [1] (setting [3]) and in experiment [2] (setting [4]) were below 100 nM and 100 to 1000 nM, respectively.
On to `O=C(NCc1ccc(OC(F)(F)F)cc1)[C@H]1CN(c2nc3ncncc3s2)CCN1S(=O)(=O)c1ccc(OC(F)(F)C(F)F)cc1` [Example 960, (R)-1-[4-(1,1,2,2-tetrafluoro-ethoxy)-benzenesulfonyl]-4-thiazolo[4,5-d]pyrimidin-2-yl-piperazine-2-carboxylic acid 4-trifluoromethoxy-benzylamide], for which the IC50 in experiment [1] (setting [5]) and in experiment [2] (setting [6]) was below 100 nM throughout.
With `CC(C)(C)c1ccc(CNC(=O)[C@H]2CN(c3nc(CO)c(C(=O)O)s3)CCN2S(=O)(=O)c2ccc(OC(F)(F)F)cc2)cc1` [Example 603, 2-[(R)-3-(4-tert-butyl-benzylcarbamoyl)-4-(4-trifluoromethoxy-benzenesulfonyl)-piperazin-1-yl]-4-hydroxymethyl-thiazole-5-carboxylic acid], the half-maximal inhibitory concentration (IC50) in experiment [1] (setting [3]) and in experiment [2] (setting [4]) was 100 to 1000 nM throughout.
For `O=C(NCc1ccc(OC(F)(F)F)cc1)[C@H]1CN(c2nc3cnnc(Cl)c3s2)CCN1S(=O)(=O)c1ccc(C(F)(F)F)cc1` [Example 896, (R)-4-(7-chloro-thiazolo[4,5-d]pyridazin-2-yl)-1-(4-trifluoromethyl-benzenesulfonyl)-piperazine-2-carboxylic acid 4-trifluoromethoxy-benzylamide], the 50% inhibitory concentration (IC50) in experiment [1] (setting [5]) and in experiment [2] (setting [6]) was below 100 nM each time.
With `CCC(F)(F)c1ccc(CNC(=O)[C@H]2CN(C(=O)Cn3nnc(-c4ccccc4)n3)CCN2S(=O)(=O)c2ccc(OC(F)(F)F)cc2)cc1` [Example 479, (R)-4-[2-(5-phenyl-tetrazol-2-yl)-acetyl]-1-(4-trifluoromethoxy-benzenesulfonyl)-piperazine-2-carboxylic acid 4-(1,1-difluoro-propyl)-benzylamide], the IC50 in experiment [1] (setting [3]) and in experiment [2] (setting [4]) was below 100 nM in each case.
Consider `CC(=O)N1CCN(S(=O)(=O)c2ccc(OC(F)(F)F)cc2)[C@@H](C(=O)NCc2ccc(-c3ccccc3)s2)C1` [Example 614, (R)-4-acetyl-1-(4-trifluoromethoxy-benzenesulfonyl)-piperazine-2-carboxylic acid (5-phenyl-thiophen-2-ylmethyl)-amide], for which the IC50 in experiment [1] (setting [3]) and in experiment [2] (setting [4]) was 100 to 1000 nM in each case.
With `CC(=O)N1CCN(S(=O)(=O)c2ccc(C(C)C)cc2)C(C(=O)NCc2ccccc2N(C)C)C1` (centres unmarked) [Example 129, 4-acetyl-1-(4-isopropyl-benzenesulfonyl)-piperazine-2-carboxylic acid 2-dimethylamino-benzylamide], the half-maximal inhibitory concentration (IC50) in experiment [1] (setting [3]) and in experiment [2] (setting [4]) was above 1000 nM throughout.
Regarding `CCOC(=O)Cn1nnnc1CC(=O)N1CCN(S(=O)(=O)c2ccc(OC(F)(F)F)cc2)[C@@H](C(=O)NCc2ccc(C(F)(F)CC)cc2)C1` [Example 533, (5-{2-[(R)-3-[4-(1,1-difluoro-propyl)-benzylcarbamoyl]-4-(4-trifluoromethoxy-benzenesulfonyl)-piperazin-1-yl]-2-oxo-ethyl}-tetrazol-1-yl)-acetic acid ethyl ester], the IC50 in experiment [1] (setting [3]) and in experiment [2] (setting [4]) was above 1000 nM throughout.
On to `Nc1nc(C2CC2)nc2nc(N3CCN(S(=O)(=O)c4ccc(OC(F)(F)F)cc4)[C@@H](C(=O)NCc4ccc(OC(F)(F)F)cc4)C3)sc12` [Example 1090, (R)-4-(7-amino-5-cyclopropyl-thiazolo[4,5-d]pyrimidin-2-yl)-1-(4-trifluoromethoxy-benzenesulfonyl)-piperazine-2-carboxylic acid 4-trifluoromethoxy-benzylamide], for which the IC50 in experiment [1] (setting [5]) and in experiment [2] (setting [6]) was below 100 nM in each case.
